Data published in the NIST ThermoML archive (doi:10.1016/j.jct.2008.02.003).
± gives the expanded uncertainty stated by the source.

Tests used:
[1] = Crystal; DTA
[2] = molar enthalpy of vaporization or sublimation; settings: 298.15 K, Calvet microcalorimetry
[3] = Molar enthalpy of transition or fusion; settings: Crystal; DSC

| Normal melting temperature [1] [°C] | molar enthalpy ([2]; Crystal) [kcal/mol] | Molar enthalpy of transition or fusion [3] [kcal/mol] | molar enthalpy ([2]; Liquid) [kcal/mol] | SMILES |
| --- | --- | --- | --- | --- |
| 30.99 ± 0.39 | 20 ± 0.717 | 5.27 ± 0.12 | – | COc1cccc(Cl)c1Cl [1,2-dichloro-3-methoxybenzene] |
| 37.37 ± 0.39 | 18.9 ± 0.717 | 5.66 ± 0.148 | – | COc1cc(Cl)cc(Cl)c1 [3,5-dichloroanisole] |
| – | – | – | 13.4 ± 0.335 | COc1c(Cl)cccc1Cl [2,6-dichloroanisole] |
| – | – | – | 15 ± 0.335 | COc1ccc(Cl)cc1Cl [2,4-dichloro-1-methoxybenzene] |
